Measured values from article PMC11224403, “Des-acyl ghrelin reduces alcohol intake and alcohol-induced reward in rodents” (Translational Psychiatry, 2024).

What was measured:
NET = assay: Transporter inhibition in recombinant cell line, NET; type: cell-based, human; conditions: 8.3 µM DAG; recombinant cells, 3 h incubation, fluorescence dye
cFOS in NAc and VTA = assay: cFOS-positive cells in NAc and VTA; type: in vivo, male rats; conditions: acute DAG, 90 min
Description: We therefore explore if DAG influenced the activity of neurons (cFOS) in NAc and VTA. Naïve male rats were treated acutely with vehicle (n = 3) or DAG (n = 3) and were 90 min later perfused. Brains were collected, and stored in 4% paraformaldehyde overnight, and in 25% sucrose until sectioning. Brains were sectioned coronally in 40-μm sections using a microtome. Brain slices of NAc (AP +1.8 mm) and VTA (AP −5.2 mm) were stained for cFOS-DAB, as described elsewhere, visualized by a Nikon light microscope (Nikon Eclipse 90i, Tokyo, Japan). Pictures were captured with a Nikon DS-Fi1 camera (Nikon, Tokyo, Japan). Cell bodies positive for cFOS immunoreactivity (dark brown) were quantified using ImageJ-FIJI (National Institutes of Health, Bethesda, MD), and counted manually by a blinded experimenter.
The obtained data are normally distributed and with equal variance. The data from drinking experiments were analyzed by unpaired t-test or repeated two-way ANOVA. A two-tailed unpaired t-test analyzed the ELISA, ex vivo HPLC-EC, and cFOS data. […] A one-way ANOVA with Bonferroni post hoc tests and unpaired t-test analyzed the locomotor activity and CPP data, respectively. The in vivo microdialysis experiments were evaluated by a repeated two-way ANOVA followed by the Bonferroni post hoc test. […] Data were analyzed with GraphPad Prism version 10.0.2 (GraphPad Software, La Jolla, CA, USA).

male and female rats = assay: Locomotor activity test, DAG per se, rats; type: in vivo, Rcc Han Wistar rats; conditions: DAG 0.5, 1.0 or 2.0 mg/kg, 60 min recording, n = 5–6 per group
Source text: Male and female Rcc Han Wistar rats (8–12 weeks old at arrival; Envigo, Horst, Netherlands) were used for the alcohol drinking and locomotor activity experiments as they drink alcohol to intoxicating levels. For in vivo microdialysis studies male Wistar rats (Charles River, Calco, Italy) were used as they display robust dopamine levels in NAc shell after alcohol injection. […] All rodents were allowed to habituate to the animal facility at least one week before they entered an experiment. During housing (20 °C with 50% humidity) the rodents had free access to water and standard chow (Teklad Rodent Diet; Envigo, Madison, WI, USA). […] The sample sizes of each experiment were based on previous experience in which statistical significance has been detected. The person who conducted the experiments, and analyzed the collected data was aware of the treatment allocation. […]
Locomotor activity tests were conducted in ventilated and dim-lit (4 lux) open field arenas (420 × 420 × 200 mm; Med Associates Inc; Georgia, Vermont, USA). Infra-red beams detected distance traveled, number of jumps, vertical counts, average velocity, stereotypic counts, number of inner zone entries, and time spent in the inner/outer zones of each animal. […]
The obtained data are normally distributed and with equal variance. The data from drinking experiments were analyzed by unpaired t-test or repeated two-way ANOVA. […]

µ-opioid receptor = type: cell-based, human; conditions: 50 µM DAG in results (8.3 µM in methods); luminescence, triplicates

des-acyl ghrelin (GSSFLSPEHQRVQQRKESKKPPAKLQPR; Ghrelin-28 non-acylated; UniProt Q9UBU3 24-51, looked up) [DAG, non-octanoylated form of ghrelin; purchased from Tocris (printed Tocrise Bioscience), dissolved in 0.9% NaCl]
inhibition of NET (NET): no inhibition | cFOS-positive cells, VTA (cFOS in NAc and VTA; male rats, data not shown): Neither did DAG treatment influence cFOS-positive cells in the VTA | number of cFOS-positive cells, NAc shell (cFOS in NAc and VTA; naïve male rats, n = 3 per group, vehicle 237 ± 13, t4 = 0.60, P = 0.6372): 219 ± 33 | locomotor activity, DAG per se (male and female rats; female rats): did not influence locomotor activity | locomotor activity, DAG per se (male and female rats; male rats): did not influence locomotor activity | activation of µ-opioid receptor (µ-opioid receptor): no activation
